According to patent EP1024807B1, “USE OF THE COMPOUND 2-METHOXYPHENYL-1-METHYL-5P-METHYLBENZOYL-PYRROL-2-ACETAMIDO ACETATE FOR THE PRODUCTION OF AN ANTI-INFLAMMATORY DRUG WITH PREVENTION OF GASTRIC HYPERSECRETION AND RENAL IMPAIRMENT” (MEDOSAN Ricerca S.r.l., priority 1997, dated 1999):
Entries after “also recorded” stand apart in the source; their conditions may differ.

What was measured:
[1] = test system: Rats; experiment: Carrageenan pleurisy, exudate volume at 4 hours; assay type: in vivo; conditions: for Exudate volume: 4 hour; for decrease exudate volume: compared to gum tragacanth control
Experimental: Compounds were administered orally 1 hour prior to and 1 hour post pleurisy induction in a volume of 0.5 ml 1% gum tragacanth. Indomethacin was used at 3 mg/kg. MED 15 was used at 25, 50 and 100 mg/kg.
A 1% solution of carrageenan in sterile saline was prepared. The solution was placed in an incubator at 37°C for half an hour to allow complete hydration of the carrageenan. The solution was then mixed to homogeneity.
A 21Gx40mm syringe needle was reduced in length to 5mm and fitted to a 1ml syringe containing the irritant. Rats were lightly anaesthetised with halothane. Each animal was placed on its left side. The skin over the thorax was lifted with and a 1cm incision made through the skin with a pair of scissors. The wound was opened to expose the underlying muscle. Using a scalpel, a 2-3mm incision was made into the muscle of the 5th-6th intercostal space. A volume of 0.15ml of carrageenan solution was then injected into the pleural cavity. The wound was closed with a 11mm Michel clip and the animal allowed to recover from the anaesthetic. Groups of animals were killed 4 hours after pleurisy induction.
Lavage solution: One part of 3.15% trisodium citrate solution, mixed with nine parts of Hank's balanced salt solution.
Rats were killed by over exposure to carbon dioxide. For each rat the skin over the thorax was moistened with IMS alcohol. The skin over the sternum was then lifted and a 5cm cut made, to expose the musculature of the upper abdomen and thoracic cavity. The muscle overlying the xiphisternum was lifted with tissue forceps and a 1cm cut made through the muscle to reveal the cartilage. This was then lifted and the diaphragm perforated just beneath the cartilage. Two cuts were then made through the rib cage either side of the cartilage to form a flap which could be folded back to expose the thoracic cavity.
Using a syringe, 1ml of lavage fluid was introduced into the thoracic cavity. The fluid was aspirated 2-3 times with a 3ml pastette to wash the cavity, before being collected into separate 10ml conical-based plastic test-tubes. Any blood contaminated fluids were rejected.
The mass of each tube with fluid was determined. By subtracting the mass of an empty tube from these values, and assuming a density for the fluid of 1g/cm^3, the fluid volume was quantified.
Results were analysed by ANOVA followed by Bonferroni T-test. Values of p<0.05 were considered significant.
Dosing was one hour prior to and one hour post pleurisy induction and inflammation was assessed at 4 hours.

[2] = test system: Rats; experiment: Adjuvant arthritis (joint diameter and patellar bone mass); assay type: in vivo; conditions: for Swelling Diameter difference (L-R) / Joint diameter (mm) Left / Joint diameter (mm) Right: day 0-3; for Joint diameter (mm) Left / Bone mass (mg) Left: left = arthritic joint; for Joint diameter (mm) Right / Bone mass (mg) Right: right = saline control joint; for % Change: ([left-right]/right)X100; for Bone loss Left-Right / Bone mass (mg) Left / Bone mass (mg) Right: patellar bone
Experimental: The drugs were administered daily by oral gavage for 4 days (day 0-3); piroxicam and MED 15 were dissolved in 5% Gum arabic + 0.01% Tween 80, and administered in a volume of 0.5ml. Piroxicam was administered as 3mg/kg and MED 15 was administered as 25, 50 and 100mg/kg doses. Table 8 bis illustrating dosage regimes. L=left stifle joint, R=Right stifle joint.
Under halothane anaesthesia, rats received 200µg of heat-killed finely ground Mycobactyerium tubercolosis in 25µl (80mg/10ml sterile saline) injected intra-articulary into the left stifle joint. The contralateral joint received 25µl 0.9% sterile saline. Control animals received 25µl of 0.9% sterile saline in both knees. SGE 50µl microsyringes with a volume lock calibrated at 25µl were used with 30G stainless steel needles. Solutions were prepared sterile, and aseptic technique was used throughout, with sterilisation of syringes between groups.
The rats were killed by carbon dioxide suffocation. The body weight was noted and the skin overlying the stifle joints was divided and the joint diameters assessed in mm using Mitutoyo vernier callipers (530-312, 0.02mm).
The patellae were dissected, weighed (Sartorius, 0.01mg) and then immersed in 1ml digestion buffer (see below) to remove soft tissue.
Digestive buffer was prepared fresh to the following formula; disodium hydrogen orthophosphate 20mM, EDTA 1mM and diothiothreitol at 2mM. Papain (EC 3.4.22.2) was added at a concentration of 6U/ml. Each patella was digested in 1ml of digestive buffer at 56°C for 4 hours. The residual paterllar bones were dried (100°C 24 hours) and weighed (Sartorius 0.01mg).
Results are presented as follows: left and right parameter alone, the difference between arthritic and contralateral control joint (left-right); and % difference between arthritic and control joints ([left-right]/right]X100).
Calculations were carried out using the spreadsheet program Lotus 123. Statistical comparisons were made between the absolute differences using INSTAT Mann Whitney unpaired two-tailed statistical test.

[3] = test system: rat; experiment: Fertility, embryotoxicity and teratogenicity studies; assay type: in vivo
[4] = test system: Salmonella Typhimurium; assay type: cell-based
[5] = test system: rat bone marrow; experiment: Micronucleus test; conditions: in vivo
[6] = test system: rat; experiment: Carcinogenesis studies, gavage over the life-span; assay type: in vivo; conditions: gavage for a period covering the animal's life-span
[7] = test system: guinea-pig isolated ileum; experiment: Intestinal motility in isolated ileum with various agonists; conditions: all of the traditional agonists (histamine, acetylcholine, serotonin)
From the text: In parallel we also studied the possible effect on intestinal motility in the guinea-pig isolated ileum (b.r. No. 29) using various agonists (fig. 7, 8 and 9).

[8] = Persistence of intact molecule in gastric and intestinal walls; assay type: in vivo; conditions: after oral administration in the rat
Experimental: The presence of the vanilloid radical, essential to the expression of the gastroprotective mechanism, is guaranteed by the prolonged persistence of high amounts of intact amtolmetin guacyl molecule in the gastric and intestinal walls (at least 2 hours after oral administration in the rat).

[9] = test system: osteoarthritis; experiment: Clinical trials in osteoarthritis; assay type: in vivo, man; conditions: 550 patients, mean 80 days; versus seven reference NSAIDs; listed as Amtolmetin guacyl
From the text: In this degenerative disease amtolmetin guacyl was compared with diclofenac, diflunisal, flurbiprofen, ibuprofen, ketoprofen, naproxen and tolmetin.

[10] = target: T1, COX2 (cyclooxygenase 2) (Rattus norvegicus, UniProt P35355); experiment: Pharmacological studies in rats: cyclooxygenase inhibition; conditions: in vivo
T1 construct: the pharmacological studies conducted in rats; from tissue; host or cells: rat (in vivo; tissue not given)
T1 sequence (P35355 18-604): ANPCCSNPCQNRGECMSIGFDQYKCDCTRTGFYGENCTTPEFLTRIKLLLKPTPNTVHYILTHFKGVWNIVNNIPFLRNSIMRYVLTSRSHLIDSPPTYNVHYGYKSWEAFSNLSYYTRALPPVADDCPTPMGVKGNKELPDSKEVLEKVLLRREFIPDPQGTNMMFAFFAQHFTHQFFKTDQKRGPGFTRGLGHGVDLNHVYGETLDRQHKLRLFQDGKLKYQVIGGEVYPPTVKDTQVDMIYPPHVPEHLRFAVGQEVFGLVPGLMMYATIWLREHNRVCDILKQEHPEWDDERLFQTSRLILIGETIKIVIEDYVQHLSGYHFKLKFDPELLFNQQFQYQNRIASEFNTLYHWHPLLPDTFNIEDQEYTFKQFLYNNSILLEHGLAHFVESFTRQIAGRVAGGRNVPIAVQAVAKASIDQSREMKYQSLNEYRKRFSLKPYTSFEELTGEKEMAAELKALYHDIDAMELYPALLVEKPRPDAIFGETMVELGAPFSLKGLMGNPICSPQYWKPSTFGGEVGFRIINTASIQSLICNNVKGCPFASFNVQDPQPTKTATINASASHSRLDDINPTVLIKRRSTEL

In the case of COc1ccccc1OC(=O)CNC(=O)Cc1ccc(C(=O)c2ccc(C)cc2)n1C [MED 15, 2-methoxyphenyl-1-methyl-5p-methylbenzoylpyrrol-2-acetamido acetate], the “Exudate volume” value ([1]; 25mg/kg orally 1 hour prior to and 1 hour post induction) is reported as 0.84 ± 0.09 mL, the decrease exudate volume ([1]; 25mg/kg) is reported as 11% and the “Exudate volume” value ([1]; 50mg/kg orally 1 hour prior to and 1 hour post induction) is reported as 0.74 ± 0.06 mL. For the same molecule, the decrease exudate volume ([1]; 50mg/kg) was 21%, the “Exudate volume” value ([1]; 100mg/kg orally 1 hour prior to and 1 hour post induction) was 0.53 ± 0.05 mL and the decrease exudate volume ([1]; 100mg/kg) was 44%. The “Swelling Diameter difference (L-R)” value ([2]; 25mg/kg daily oral) was 2.22 mm, the “Joint diameter (mm) Left” value ([2]; 25mg/kg daily oral) was 11.57 mm and the “Joint diameter (mm) Right” value ([2]; 25mg/kg daily oral) was 9.35 mm. For the same molecule, the “Swelling Diameter difference (L-R)” value ([2]; 50mg/kg daily oral) was 2.06 mm, the “Joint diameter (mm) Left” value ([2]; 50mg/kg daily oral) was 10.95 mm and the “Joint diameter (mm) Right” value ([2]; 50mg/kg daily oral) was 8.88 mm. The “Swelling Diameter difference (L-R)” value ([2]; 100mg/kg daily oral) was 1.38 mm, the “Joint diameter (mm) Left” value ([2]; 100mg/kg daily oral) was 10.26 mm and the “Joint diameter (mm) Right” value ([2]; 100mg/kg daily oral) was 8.88 mm. The “protective effect against bone loss compared to piroxicam” value ([2]; dose of 100mg/kg) was “not significantly different to piroxicam”, the “% Change” value ([2]; joint diameter, 25mg/kg daily oral) was 24.04% and the “% Change” value ([2]; joint diameter, 50mg/kg daily oral) was 23.36%. The “% Change” value ([2]; joint diameter, 100mg/kg daily oral) was 15.71%, the “% Change” value ([2]; patellar bone mass, 25mg/kg daily oral) was 45.45% and the “% Change” value ([2]; patellar bone mass, 50mg/kg daily oral) was 40.55%. For the same molecule, the “% Change” value ([2]; patellar bone mass, 100mg/kg daily oral) was 31.85%, the “protection against bone loss” value ([2]; patellar bone mass, arthritic groups) was “dose dependent protective effect” and the “Bone loss Left-Right” value ([2]; 25mg/kg daily oral) was -1.94 mg. The “Bone mass (mg) Left” value ([2]; 25mg/kg daily oral) was 2.33 mg, the “Bone mass (mg) Right” value ([2]; 25mg/kg daily oral) was 4.27 mg and the “Bone loss Left-Right” value ([2]; 50mg/kg daily oral) was -1.69 mg. The “Bone mass (mg) Left” value ([2]; 50mg/kg daily oral) was 2.49 mg, the “Bone mass (mg) Right” value ([2]; 50mg/kg daily oral) was 4.18 mg and the “Bone loss Left-Right” value ([2]; 100mg/kg daily oral) was -1.38 mg. For the same molecule, the “Bone mass (mg) Left” value ([2]; 100mg/kg daily oral) was 2.97 mg, the “Bone mass (mg) Right” value ([2]; 100mg/kg daily oral) was 4.34 mg and the “fertility, embriotoxicity and teratogenicity” value [3] was “safety”. The Ames test [4] was “absence of amtolmetin guacyl-related damage”, the micronucleus test [5] was “absence of amtolmetin guacyl-related damage” and the Carcinogenesis [6] was “innocuity”. The motility [7] was “decrease in motility”, the “persistence of high amounts of intact molecule in the gastric and intestinal walls” value [8] was “at least 2 hours” and the “Evaluation of antiphlogistic activity” value [9] was “statistically significant more rapid and more marked activity; also recorded: Amtolmetin guacyl was more rapid and more active in a statistically significant manner in osteoarthritis compared to the reference NSAIDs”. The “inhibition of COX2” value [10] was “inhibition”.
